From article PMC9976286, “Combination of In Silico and In Vitro Screening to Identify Novel Glutamate Carboxypeptidase II Inhibitors” (Journal of Chemical Information and Modeling, 2023)
Several values for one entry are separate records, joined by “and”; a condition that tells them apart may be missing. Equal entries are not always repeated. Where two headings read alike, the source gives them in different places.

What was measured:
GCPII = settings: cited from earlier work; for Ki: read-out: Ki[nM] (54 actives, PDB ID)
Recombinant human GCPII [1] = target: T1, Recombinant human GCPII (Homo sapiens, UniProt Q04609); assay: GCPII IC50 with substrate concentration 10x above KM (mode of inhibition); assay type: biochemical; settings: for Increase of GCPII IC50 at 10x KM substrate versus KM: IC50 at 1 μM substrate relative to IC50 at 100 nM substrate; for IC50: substrate concentration 10 times above KM (1 μM)
T1 construct: made in house
T1 sequence (Q04609 whole entry): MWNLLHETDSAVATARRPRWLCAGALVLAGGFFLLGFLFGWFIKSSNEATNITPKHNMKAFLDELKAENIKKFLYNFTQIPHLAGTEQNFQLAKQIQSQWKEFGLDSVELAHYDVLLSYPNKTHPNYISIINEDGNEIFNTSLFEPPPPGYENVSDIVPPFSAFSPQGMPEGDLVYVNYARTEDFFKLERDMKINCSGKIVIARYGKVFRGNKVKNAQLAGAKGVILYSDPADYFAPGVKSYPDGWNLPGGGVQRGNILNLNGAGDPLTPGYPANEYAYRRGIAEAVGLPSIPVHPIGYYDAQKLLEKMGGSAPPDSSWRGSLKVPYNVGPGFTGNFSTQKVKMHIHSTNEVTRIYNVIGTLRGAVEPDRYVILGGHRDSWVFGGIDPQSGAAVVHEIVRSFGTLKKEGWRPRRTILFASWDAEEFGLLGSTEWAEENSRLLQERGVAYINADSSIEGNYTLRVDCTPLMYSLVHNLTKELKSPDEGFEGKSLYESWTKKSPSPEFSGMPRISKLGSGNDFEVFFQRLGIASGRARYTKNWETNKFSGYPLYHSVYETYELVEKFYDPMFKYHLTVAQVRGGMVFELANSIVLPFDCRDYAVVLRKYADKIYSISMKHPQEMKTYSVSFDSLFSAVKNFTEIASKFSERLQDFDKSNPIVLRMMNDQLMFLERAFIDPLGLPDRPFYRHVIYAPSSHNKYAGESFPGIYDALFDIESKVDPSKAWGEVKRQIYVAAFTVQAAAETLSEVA
Procedure: The inhibitory potency of the selected compounds against GCPII was determined using a fluorescence-based assay developed in-house. Recombinant human GCPII purified as described previously[40],[41] (final concentration 0.02 nM) was preincubated with 20 μM test compound for the screening in 50 mM Tris-HCl, 150 mM NaCl, 0.001% C12E8 at 37 °C for 10 min. […] Following 15 min incubation, the reaction was terminated by the addition of 5 μL of 0.1% TFA in 5% acetonitrile. Reaction mixtures were then analyzed by RP-HPLC with a Kinetex 2.6 μm XB-C18 100 Å column with a fluorescence detector set to λEX/λEM = 492/516. The GCPII inhibition in the SPECS hits samples was calculated using the noninhibited reaction as a control. Inhibition constants of the compounds active in the in vitro screening were determined using increasing concentrations of inhibitors. The data were fitted using the GraphPad Prism software, and IC50 values were calculated from the inhibition curves of two independent experiments using a nonlinear analysis protocol.

Recombinant human GCPII [2] = target: T1, Recombinant human GCPII; assay: In vitro GCPII inhibition assay, fluorescence-based, RP-HPLC readout (screening at 20 μM and IC50); assay type: biochemical; settings: for IC50: substrate concentration at KM (100 nM Glu-Glu dipeptide labeled with fluorescein)
Procedure: The inhibitory potency of the selected compounds against GCPII was determined using a fluorescence-based assay developed in-house. Recombinant human GCPII purified as described previously[40],[41] (final concentration 0.02 nM) was preincubated with 20 μM test compound for the screening in 50 mM Tris-HCl, 150 mM NaCl, 0.001% C12E8 at 37 °C for 10 min. The reaction was initiated by the addition of 100 nM Glu-Glu dipeptide labeled with fluorescein (substrate)[42] in a total volume of 50 μL. Following 15 min incubation, the reaction was terminated by the addition of 5 μL of 0.1% TFA in 5% acetonitrile. […] The data were fitted using the GraphPad Prism software, and IC50 values were calculated from the inhibition curves of two independent experiments using a nonlinear analysis protocol.

Recombinant human HDAC10 = target: T2, Recombinant human HDAC10 (Homo sapiens, UniProt Q969S8); assay: Inhibitor specificity: fluorescence-based HDAC10 activity assay; assay type: biochemical; settings: for HDAC10 inhibition (in words): off-target specificity
T2 construct: made in house
T2 sequence (Q969S8 1-669): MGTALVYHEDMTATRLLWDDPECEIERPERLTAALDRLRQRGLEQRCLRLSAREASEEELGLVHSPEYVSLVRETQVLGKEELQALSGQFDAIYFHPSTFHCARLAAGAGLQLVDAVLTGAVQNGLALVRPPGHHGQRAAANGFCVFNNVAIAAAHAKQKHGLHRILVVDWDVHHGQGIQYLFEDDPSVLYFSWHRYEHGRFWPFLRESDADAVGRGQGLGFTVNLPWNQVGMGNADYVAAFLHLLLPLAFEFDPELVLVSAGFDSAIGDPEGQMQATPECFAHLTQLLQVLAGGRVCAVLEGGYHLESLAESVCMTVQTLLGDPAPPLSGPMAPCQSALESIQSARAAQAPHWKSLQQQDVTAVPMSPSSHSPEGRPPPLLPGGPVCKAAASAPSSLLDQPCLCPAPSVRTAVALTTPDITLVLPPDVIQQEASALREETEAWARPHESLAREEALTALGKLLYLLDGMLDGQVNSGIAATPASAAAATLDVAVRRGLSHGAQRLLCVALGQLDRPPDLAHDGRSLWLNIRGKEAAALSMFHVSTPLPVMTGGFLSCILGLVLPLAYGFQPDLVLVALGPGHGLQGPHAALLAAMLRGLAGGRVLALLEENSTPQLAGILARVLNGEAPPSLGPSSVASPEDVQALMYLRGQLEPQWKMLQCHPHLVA
Procedure: The fluorescence-based activity assay used was developed in-house. Recombinant human HDAC10 purified as described previously[43] (0.5 nM) was preincubated with dilution series of compounds in 50 mM 4-(2-hydroxyethyl)-1-piperazineethanesulfonic acid (HEPES), 140 mM NaCl, 10 mM KCl, 2 mg/mL bovine serum albumin (BSA), and 1 mM tris(2-carboxyethyl) phosphine, pH 7.4 at 37 °C for 10 min. The reaction was initiated by the addition of a 10 μM substrate (spermidine labeled with fluorescein, provided by the group of Prof. Mike Schutkowski)[43] in a total volume of 50 μL. Following 30-min incubation, the reaction was terminated by the addition of 5 μL of 0.5% acetic acid and centrifuged at 2000g at room temperature for 15 min to remove precipitated BSA. […] The HDAC10 inhibition was calculated using the noninhibited reaction as a control. Inhibition constants of the compounds were determined using increasing concentrations of inhibitors. The data were fitted using the GraphPad Prism software,[44] and IC50 values were calculated from the inhibition curves of two independent experiments using a nonlinear analysis protocol.

[3] = dataset of 54 GCPII ligands compiled from the PDB
[4] = dataset of 54 GCPII ligands compiled from the PDB, read-out: IC50[nM] (54 actives, PDB ID)
[5] = read-out: GCPII IC50 at substrate concentration 10 times above the KM
[6] = 10 μM fluorescein-labeled spermidine substrate, read-out: HDAC10 IC50

O=C(N[C@@H](CCCCNC(=O)c1ccc(I)cc1)C(=O)O)N[C@@H](C[C@H]1CO1)C(=O)O [Compound 4OC1]
Ki (GCPII; [3]): 254 nM

C#CC[C@H](NC(=O)N[C@@H](CCCCNC(=O)c1ccc(I)cc1)C(=O)O)C(=O)O [Compound 4OC2]
Ki (GCPII; [3]): 5.3 nM

O=C(N[C@@H](CCCCNC(=O)c1ccc(I)cc1)C(=O)O)N[C@@H](Cc1ccco1)C(=O)O [Compound 4OC3]
Ki (GCPII; [3]): 5.3 nM

O=C(N[C@@H](CCCCNC(=O)c1ccc(I)cc1)C(=O)O)N[C@@H](Cc1ccncc1)C(=O)O [Compound 4OC4]
Ki (GCPII; [3]): 105 nM

O=C(N[C@@H](CCCCNC(=O)c1ccc(I)cc1)C(=O)O)N[C@H](C(=O)O)c1ccc(O)cc1 [Compound 4OC5]
Ki (GCPII; [3]): 85 nM

O=C(O)CC[C@H](N[P@](=O)(O)OCCNC(=O)c1ccccc1)C(=O)O [Compound 4P4D]
IC50 (GCPII; [4]): 1800 nM

O=C(O)CC[C@H](N[P@](=O)(O)OCCCCc1ccccc1)C(=O)O [Compound 4P4E]
IC50 (GCPII; [4]): 180 nM

O=C(O)CC[C@H](N[P@](=O)(O)OCc1ccc(-c2ccccc2)cc1)C(=O)O [Compound 4P4F]
IC50 (GCPII; [4]): 168 nM

O=C(O)CC[C@H](N[P@](=O)(O)OC[C@H](NC(=O)c1ccccc1)C(=O)O)C(=O)O [Compound 4P4I]
IC50 (GCPII; [4]): 35 nM

O=C(O)CC[C@H](N[P@](=O)(O)OC[C@@H](NC(=O)c1ccccc1)C(=O)O)C(=O)O [Compound 4P4J]
IC50 (GCPII; [4]): 700 nM

CC[C@@H](C)[C@H](NC(=O)c1ccc(F)cc1)C(=O)N[C@@H](CO[P@@](=O)(O)N[C@@H](CCC(=O)O)C(=O)O)C(=O)O [Compound 4P44]
IC50 (GCPII; [4]): 16 nM

CC(C)[C@H](NC(=O)c1ccc(F)cc1)C(=O)N[C@@H](CO[P@@](=O)(O)N[C@@H](CCC(=O)O)C(=O)O)C(=O)O [Compound 4P45]
IC50 (GCPII; [4]): 16 nM

O=C(CC[C@@H](Cc1ccc(C(=O)O)cc1)C(=O)O)NO [Compound 5D29]
IC50 (GCPII; [4]): 97 nM

O=C(CC[C@H](Cc1ccc(C(=O)O)cc1)C(=O)O)NO [Compound 5ELY]
IC50 (GCPII; [4]): 44 nM

O=C(O)CC[C@H](NC(=O)N[C@@H](CCCC(=O)NCc1ccc(F)cc1)C(=O)O)C(=O)O [Compound 5OF0]
IC50 (GCPII; [4]): 2.32 nM

O=C(O)CC[C@H](NC(=O)N[C@@H](CCCC(=O)Nc1ccc(F)cc1)C(=O)O)C(=O)O [Compound 6H7Y]
IC50 (GCPII; [4]): 0.35 nM

CN(C(=O)CCC[C@H](NC(=O)N[C@@H](CCC(=O)O)C(=O)O)C(=O)O)c1ccc(F)nc1 [Compound 6H7Z]
IC50 (GCPII; [4]): 0.13 nM

O=C(O)CC[C@H](NC(=O)N[C@@H](CCCC(=O)Nc1ccc(F)nc1)C(=O)O)C(=O)O [Compound 6HKJ]
IC50 (GCPII; [4]): 0.99 nM

O=C(O)CSC1=C(SCC(=O)O)C(=O)C(SCC(=O)O)=C(SCC(=O)O)C1=O [Compound 17]
Increase of GCPII IC50 at 10x KM substrate versus KM (Recombinant human GCPII [1]): approximately twice | IC50 (Recombinant human GCPII [1]; read-out: GCPII IC50 10x > KM): 9390 nM | IC50 (Recombinant human GCPII [1]; [5]): 9400 ± 100 nM | IC50 (Recombinant human GCPII [2]): 4500 nM and 4510 nM | IC50 (Recombinant human HDAC10; [6]): 2210 nM and 2200 nM

O=[N+]([O-])c1ccc(C(CCc2nnn[nH]2)(CCc2nnn[nH]2)c2nnn[nH]2)cc1 [Compound 18]
Increase of GCPII IC50 at 10x KM substrate versus KM (Recombinant human GCPII [1]): approximately twice | IC50 (Recombinant human GCPII [1]; read-out: GCPII IC50 10x > KM): 27600 nM | IC50 (Recombinant human GCPII [1]; [5]): > 20000 nM | inhibition at 20 µM (Recombinant human GCPII [2]; compound at 20 μM, 100 nM fluorescein-labeled Glu-Glu dipeptide substrate, read-out: Inhibition [%] of GCPII activity): > 50% | IC50 (Recombinant human GCPII [2]): 15000 nM | IC50 (Recombinant human HDAC10; [6]): > 100000 nM | HDAC10 inhibition (in words) (Recombinant human HDAC10): did not exhibit any HDAC10 inhibition

O=C(O)c1ccccc1-c1c2ccc(=O)c(I)c-2oc2c(I)c(OS(=O)(=O)c3ccc(Br)cc3)ccc12 [Compound 46]
Increase of GCPII IC50 at 10x KM substrate versus KM (Recombinant human GCPII [1]): 4 fold | IC50 (Recombinant human GCPII [1]; read-out: GCPII IC50 10x > KM): 1350 nM | IC50 (Recombinant human GCPII [1]; [5]): 1400 ± 100 nM | IC50 (Recombinant human GCPII [2]): 353 ± 24 nM | IC50 (Recombinant human HDAC10; HDAC10 IC50, 10 μM fluorescein-labeled spermidine substrate): > 100000 nM | HDAC10 inhibition (in words) (Recombinant human HDAC10): did not exhibit any HDAC10 inhibition

O=C(O)CC[C@H](NC(=O)N[C@@H](CCCC(=O)N(CCNC(=O)c1ccc(F)nc1)c1ccccc1)C(=O)O)C(=O)O [RNA 2-49-1]
IC50 (GCPII; [4]): 0.075 nM | IC50 (GCPII; read-out: GCPII IC50): 0.08 nM
